In general, mortality refers to the percentage killed.

The source of these data is patent US20240156744A1, “METHOD OF APPLYING ELECTRICAL IMPULSES FOR THE PURPOSE OF LOADING VARIOUS MOLECULES INTO PLANT-DERIVED NANOVESICLES” (EXO LAB ITALIA, S.r.l., priority 2021, published 2024).

Assay [1] has as its system drug-resistant CEM/VBL100 cells. In words: Cytotoxicity by Trypan blue assay on CEM/VBL100 cells. It counts as cell-based. The note with it: CEM/VBL100, 24 h. As for the experimental part:
Increasing concentrations of VBL alone and loaded into the plant nanovesicles were used to assess the cytotoxic effect on CEM and CEM/VBL100 leukaemic cells by Trypan blue assay after 48 and 24 h of incubation, respectively. A) The cytotoxic effect on CEM cells starts to be evident at a concentration of 1000 ng/mL and is enhanced in VBL loaded in the plant nanovesicles (2.6-fold higher than in VBL alone).

In assay [2] the test system is human melanoma cells. In words: Transfer of AO to tumour cells, spectrofluorimeter. As to conditions: AO 0.1 pg/mL; cells cultured in unbuffered medium. It counts as cell-based. The text has this:
Acridine orange was not activated with blue light.

In assay [1], `CC[C@]1(O)C[C@@H]2CN(CCc3c([nH]c4ccccc34)[C@@](C(=O)OC)(c3cc4c(cc3OC)N(C)[C@H]3[C@@](O)(C(=O)OC)[C@H](OC(C)=O)[C@]5(CC)C=CCN6CC[C@]43[C@@H]65)C2)C1` [VBL, vinblastine] displayed a mortality at 0.0001 µg/mL of 0.7%. Consider `CN(C)c1ccc2cc3ccc(N(C)C)cc3nc2c1` [AO, Acridine Orange], for which the “percentage of AO transferred to tumour cells” value in assay [2] is listed as “significantly reduced”.
